The values that follow come from paper PMC9658586, “1,4-Naphthoquinone Motif in the Synthesis of New Thiopyrano[2,3-d]thiazoles as Potential Biologically Active Compounds” (Molecules, 2022).

Series [1] concerns Human colon carcinoma HCT116 cells (HCT116wt). The series can be described thus: MTT cell viability assay, HCT116wt. The settings on record: Homo sapiens, HCT-116, 72 h. In kind it is cell-based. The procedure: (§1) The MTT cell viability assay was performed 72 h after cells treatment with various concentrations of studied compounds and doxorubicin, a reference drug. […] It is known that ABCB1 (P-glycoprotein), MRP1/ABCC1 (multidrug resistance protein 1), and BCRP/BCG2 (breast cancer resistance protein) have been reported to be key players in resistance to chemotherapy. […] The p53 has diverse mutations in almost all human tumors, stimulating their hyper-proliferation, invasion/metastasis, and thus, influencing the potency of various chemotherapeutics (i.e., platins and anti-metabolites).
(§2) Human colon carcinoma HCT116 cells, human breast adenocarcinoma cells of MCF-7 line, human T-leukemia Jurkat cells, human chronic myelogenous leukemia K562 cells, and human keratinocytes of HaCaT line were from the Cell Collection of R.E. Kavetsky Institute of Experimental Pathology, Oncology and Radiobiology (Kyiv, Ukraine). Murine macrophages of J774.2 line were a generous gift from Professor Sir John Vane (William Harvey Research Institute, London, UK) via Professor Janusz Marcinkiewicz (Jagiellonian University Medical College, Krakow, Poland). Human colon carcinoma HCT116 p53-/- cells with knockdown of P53 gene, as well as human epidermoid cervix carcinoma KB3-1 cells and its ABCB1-overexpressing subline KBC-1, were kindly provided by Professor W. Berger (Institute of Cancer Research, Medical University of Vienna, Austria). […] Human leukemia monocytic THP-1 cells were kindly provided by Professor M. Herrmann (Department of Internal Medicine, Institute for Clinical Immunology and Rheumatology, University of Erlangen-Nuremberg, Germany). Cells were cultured in DMEM or RPMI-1640 medium supplemented with 10% fetal bovine serum (all were purchased from Biowest, Nuaille, France) at 37 °C in a humidified atmosphere containing 5% CO2.
(§3) MTT assay was used to examine the viability of tumor and pseudo-normal cells after their treatment with studied thiopyrano[2,3-d]thiazole derivatives and doxorubicin (Actavis S.R.L., Bucharest, Romania). Cells were seeded in 96-well plates at a density of 3–5 × 103. After 24 h, cells were treated with compound […], 1,4-NQ (0.1–100 µM), and doxorubicin (0.1–100 µM). After incubation for 72 h, MTT reagent (Sigma-Aldrich, St. Louis, MO, USA) was added to each well, according to the Sigma-Aldrich protocol. An absorbance Reader BioTek ELx800 (BioTek Instruments, Inc., Winooski, VT, USA) was used to measure the reaction product.

In the next series the test system is Jurkat cells. Description: DNA laddering (DNA extraction and gel electrophoresis). In kind it is cell-based, human. The protocol: DNA extraction and gel electrophoresis were performed as described by Herrmann and others. Jurkat cells were collected by centrifugation; lysed in a lysis buffer (1% NP-40 in 20 mM EDTA, 50 mM Tris-HCl, pH 7.5; 10 µL per 10 6 cells, minimum 50 µL). After centrifugation for 5 min at 1600× g, the supernatant was collected and the extraction was repeated with the same amount of lysis buffer. Supernatants were brought to 1% SDS and treated for 2 h with RNase A (final concentration 5 µg/mL) at 56 °C. Then, proteinase K was added (final concentration 2.5, µg/mL) and incubated for 2 h at 37 °C. After adding 1/2 volume of 10 M ammonium acetate, the DNA was precipitated with 2.5 vol. Ethanol, dissolved in gel loading buffer, and separated by electrophoresis in 1% agarose gels containing Ethidium bromide (at 70 V).

The subject of series [2] is human keratinocytes of HaCaT line. Description: MTT cell viability assay, HaCaT. In kind it is cell-based. The settings on record: 72 h, pseudo-normal cells. The protocol: as §1
as §2, with “Cells were cultured in DMEM or RPMI-1640 medium supplemented with 10% fetal bovine serum (all were purchased from Biowest, Nuaille, France) at 37 °C in a humidified atmosphere containing 5% CO2.” left out
(§4) MTT assay was used to examine the viability of tumor and pseudo-normal cells after their treatment with studied thiopyrano[2,3-d]thiazole derivatives and doxorubicin (Actavis S.R.L., Bucharest, Romania). […] An absorbance Reader BioTek ELx800 (BioTek Instruments, Inc., Winooski, VT, USA) was used to measure the reaction product.

Series [3] relates to Human leukemia monocytic THP-1 cells. The series can be described thus: MTT cell viability assay, THP-1. In kind it is cell-based. The settings on record: 72 h. The protocol: as §1
(§5) Human colon carcinoma HCT116 cells, human breast adenocarcinoma cells of MCF-7 line, human T-leukemia Jurkat cells, human chronic myelogenous leukemia K562 cells, and human keratinocytes of HaCaT line were from the Cell Collection of R.E. Kavetsky Institute of Experimental Pathology, Oncology and Radiobiology (Kyiv, Ukraine). […]
as §4

The subject of series [4] is human breast adenocarcinoma cells of MCF-7 line. Description: MTT cell viability assay, MCF-7. In kind it is cell-based. The settings on record: Homo sapiens, MCF7, 72 h. The procedure:
as §1, §2, §3

Series [5] concerns human epidermoid cervix carcinoma KB3-1 cells. The series can be described thus: MTT cell viability assay, KB3-1. In kind it is cell-based. The settings on record: Homo sapiens, KB 3-1, 72 h. The protocol: as §1, §2, §3
For series [6], the system named is Murine macrophages of J774.2 line. The series can be described thus: MTT cell viability assay, J774.2. In kind it is cell-based. The settings on record: pseudo-normal murine macrophages. The protocol: as §1, §2, §3
The test system of series [7] is human T-leukemia Jurkat cells. The series can be described thus: MTT cell viability assay, Jurkat. The format is cell-based. The settings on record: 72 h. The protocol: as §1, §5, §4
For series [8], the system named is KBC-1 (ABCB1-overexpressing subline of KB3-1). The series can be described thus: MTT cell viability assay, KBC-1. In kind it is cell-based. The settings on record: Homo sapiens, 72 h. The procedure: as §1
as §2, with “Cells were cultured in DMEM or RPMI-1640 medium supplemented with 10% fetal bovine serum (all were purchased from Biowest, Nuaille, France) at 37 °C in a humidified atmosphere containing 5% CO2.” left out
as §4

Series [9] concerns panel of sixty cancer cell lines. Description: NCI single-dose (10 μM) anticancer screen, sulforhodamine B, 60-cell-line panel. The format is cell-based, human. The settings on record: 48 h; for Mean Growth, %: growth percent vs untreated control, 60 cell lines; for Range of Growth, %: range over 60 cell lines. The procedure:
(§6) Considering the results of previous studies of fused thiazolidinones and their analogs, a series of thiopyrano[2,3-d]thiazoles with naphthoquinone fragments in the structure were studied for their anticancer activity. Thus, synthesized thiopyranothiazole derivatives 3.5 and 3.6 were selected by the National Cancer Institute (NCI), U.S., for their anticancer activity at 10 μM concentration toward a panel of sixty cancer cell lines representing nine different types (leukemia, melanoma, lung, colon, CNS, ovarian, renal, prostate, and breast cancers) (Figures S13–S14). Selection for screening based on new derivatives’ ability to add diversity to the NCI small molecules collection and anticancer assays were performed according to the NCI guidelines and protocols previously described. The compounds were added at the mentioned concentration, and the cell cultures were incubated for 48 h. The results for each compound were reported as the growth percent (GP%) of treated cells compared with untreated control cells.
Anticancer in vitro assay was performed on the human tumor cell lines panel derived from nine neoplastic diseases by the protocol of the Drug Evaluation Branch, National Cancer Institute, Bethesda, MD, USA [44, 45, 46]. Tested compounds were added to the culture at a single concentration (10^−5 M), and the cultures were incubated for 48 h. Endpoint determinations were made with a protein binding dye, sulforhodamine B. Results for each tested compound were reported as the GP% of the treated cells compared to untreated control cells. GP% was spectrophotometrically evaluated vs. controls not treated with test agents.

The subject of series [10] is Human colon carcinoma HCT116 p53-/- cells. The series can be described thus: MTT cell viability assay, HCT116 p53-/-. In kind it is cell-based. The settings on record: for IC50: Homo sapiens, read-out: IC50, HCT116 p53-/-. The procedure:
as §1, §2, §3

The test system of series [11] is human chronic myelogenous leukemia K562 cells. The series can be described thus: MTT cell viability assay, K562. The format is cell-based. The settings on record: Homo sapiens, K562, 72 h. The procedure: as §1, §2, §3
The test system of a further series is MDA-MB-435/Melanoma. The series can be described thus: NCI single-dose screen, MDA-MB-435. The format is cell-based, human. The settings on record: 10 μM, 48 h. The protocol:
as §6
Anticancer in vitro assay was performed on the human tumor cell lines panel derived from nine neoplastic diseases by the protocol of the Drug Evaluation Branch, National Cancer Institute, Bethesda, MD, USA [44, 45, 46]. […] GP% was spectrophotometrically evaluated vs. controls not treated with test agents.

Like-named read-outs stand apart in the source and are kept apart here.

For `COc1cccc2c1C(=O)c1c(O)c3c(c(O)c1C2=O)C[C@@](O)(C(=O)CO)C[C@@H]3O[C@H]1C[C@H](N)[C@H](O)[C@H](C)O1` [Doxorubicin, doxorubicin, reference compound], the IC50 was 70 nM in [1]; 800 nM in [2] (listed as Dox); 800 to 1000 nM in [2] (Homo sapiens, HaCaT); 14000 nM in series [3]; 630 nM in series [4]; 730 nM in [5]. Besides, the IC50 in series [6] (72 h, listed as Dox) was 970 nM; in [6] (Mus musculus, J774.2, 72 h), 800 to 1000 nM; in [7], 670 nM; in series [8] it was 1970 nM; in series [10] (HCT-116, 72 h), 580 nM; in series [11], 620 nM. For the same molecule, the DNA laddering result in the series with Jurkat cells (0.5 µM) is “more necrotic changes in treated Jurkat cells than apoptotic ones”. In addition, in series [9], the “Mean Growth, %” value is on record as −20.30%. The “Range of Growth, %” value in [9] was −86.40 to 72.90%. In the series on MDA-MB-435/Melanoma, the “Most Sensitive Cell Line Growth, % (MDA-MB-435/Melanoma)” value is reported as −82.60%.
Consider `O=C1C2=C(C(=O)c3ccccc31)C(CCc1ccccc1)c1sc(=O)[nH]c1S2` (stereo not drawn) [Compound 3.6, 11-Phenethyl-3,11-dihydro-2H-benzo[6,7]thiochromeno[2,3-d]thiazole-2,5,10-trione], for which the IC50 in [1] was 6370 nM; in series [2] (Homo sapiens, HaCaT) it was greater than 100000 nM; in series [3] it was 7940 nM; in series [4], 8940 nM; in series [5], 27700 nM; in [6] (Mus musculus, J774.2, 72 h) it was 9570 nM. Also, the IC50 came to 760 nM in series [7]; 12800 nM in series [8]; 12300 nM in series [10] (HCT-116, MTT, 72 h); 25700 nM in series [11]. The DNA laddering entry in the series on Jurkat cells (1 µM) is “slight laddering of DNA”; with Jurkat cells (2.5 µM and 5 µM), “necrotic degradation of DNA”; in the series with Jurkat cells (10 µM and 25 µM), “extreme DNA fragmentation”. Also, the “Mean Growth, %” value in series [9] amounted to 90.58%. Also, the “Range of Growth, %” value in series [9] lay in the range of 45.25 to 130.11%. For the same molecule, the “cytotoxic action on p53-deficient colon carcinoma cells relative to HCT116wt” value in series [10] (HCT116 p53-/- vs HCT116wt) is “two times weaker”. The “Most Sensitive Cell Line Growth, % (MDA-MB-435/Melanoma)” value in the series with MDA-MB-435/Melanoma worked out at 52.87%.
